According to patent publication US6426355B1, “Heterocyclic carboxamide-containing thiourea inhibitors of herpes viruses containing phenylenediamine group” (American Home Products, priority 1998, dated 2002):
≈ marks a conversion by molar mass, not a printed value.

Assays:
[1] = test system: HCMV recombinant mutant virus (RV145); experiment: HCMV microtiter plate assay (beta-glucuronidase reporter); format: cell-based, Human Cytomegalovirus; conditions: for IC50 (ug/ml) HCMV: HCMV in human foreskin fibroblasts; for IC50: Human betaherpesvirus 5, Fibroblast, read-out: IC50 (ug/ml) HCMV
Excerpt: Ninety-six well plate cultures of human foreskin fibroblasts are infected in the presence of inhibitor compound with a HCMV recombinant mutant virus whose genome contains the prokaryotic beta-glucuronidase gene (Jefferson, R. A., S. M. Burgess, and D. Hirsh. 1986. Beta-glucuronidase from Escherichia coli as a gene fusion marker. Proc. Natl. Acad. Sci. USA 83:8447-8451) whose expression is controlled by a viral promoter. An example of such a virus is RV145 (Jones, T. R., V. P. Muzithras, and Y. Gluzman. 1991. Replacement mutagenesis of the human cytomegalovirus genome: US10 and US11 gene products are nonessential. J. Virol. 65:5860-5872). Since it is under the control of a viral promoter, beta-glucuronidase expression is an indirect indicator of growth and replication of HCMV in this assay. At 96 hours post-infection, the infected cell lysates are prepared (using 50 mM sodium phosphate [pH7.0] containing 0.1% Triton X-100 and 0.1% sarkosyl) and assayed for beta-glucuronidase activity using a substrate for the enzyme which when cleaved yields either a product which can be measured colorimetrically in a spectrophotometer or fluorescently in a microfluorimeter. Examples of such substrates are p-nitrophenyl-beta-D-glucuronide and methylumbelliferylglucuronide, respectively. The presence of an antiviral compound is indicated by the reduced expression of the HCMV genome resident beta-glucuronidase gene, compared to the absence of inhibitor. […] Data from this assay generated using varying amounts of inhibitor compound is also used to estimate the IC50 of an inhibitor compound.

HSV-1 = experiment: HSV Antiviral (ELISA) assay; format: cell-based; conditions: for IC50 (ug/ml) HSV: HSV-1 in Vero cells; for IC50: Human alphaherpesvirus 1, HSV-1 in Vero cells, read-out: IC50 (ug/ml) HSV
Protocol: Vero cells (ATCC #CCL-81) are plated on 96-well tissue culture plates at 3.5×10^4 cells per 100 μl tissue culture DMEM (Dulbecco's modified Eagle media) supplemented with 2% fetal bovine serum (FBS) in each well. After overnight incubation @ 37° C. (in 5% CO2) and 30 minutes prior to infection with HSV-1 (multiplicity of infection equal to 0.006), cells are either untreated, or treated with test compound (multiple concentrations) or reference standard drug control. After approximately 24 hours post-infection incubation @ 37° C. (in 5% CO2), cells are fixed for ELISA assay. The primary antibody is murine anti-HSV glycoprotein D monoclonal primary antibody and the secondary antibody is goat anti-mouse IgG linked to β-galactosidase. Thus the extent of viral replication is determined by assessing β-galactosidase activity by quantifying the generation of the 4-methyl umbelliferone fluorescent cleavage product after addition of the methyl umbelliferyl-β-D-galactoside (Sigma #M1633) substrate on a microfluorimeter (365 nm for excitation and 450 nm for emission). Antiviral activity (IC50) of the test compound is determined by comparing the flourescence obtained in absence of compound to that obtained in the presence of compound.

SMILES | IC50 (ug/ml) HCMV [1] | IC50 (ug/ml) HSV (HSV-1) | IC50 [1] | IC50 (HSV-1)
O=C(Nc1ccc(NC(=S)NCCc2cccc(I)c2)cc1)c1csnn1 [Example 768] | 0.005 µg/mL (≈ 0.00982 µM) | >10 µg/mL | – | –
COc1ccc(Br)cc1CCNC(=S)Nc1ccc(NC(=O)c2csnn2)cc1 [Example 682] | 0.006 µg/mL (≈ 0.0122 µM) | >10 µg/mL | – | –
O=C(Nc1ccc(NC(=S)NCCc2c(Cl)cccc2Cl)cc1)c1csnn1 [Example 709] | 0.05 µg/mL (≈ 0.111 µM) | >10 µg/mL | – | –
O=C(Nc1ccc(NC(=S)NCc2cccc(C(F)(F)F)c2)cc1)c1csnn1 [Example 731] | 0.007 µg/mL (≈ 0.016 µM) | >10 µg/mL | – | –
O=C(Nc1ccc(NC(=S)NCCOc2cccc(Br)c2)cc1)c1csnn1 [Example 734] | 0.009 µg/mL (≈ 0.0188 µM) | >10 µg/mL | – | –
O=C(Nc1ccc(NC(=S)NCCc2ccc([N+](=O)[O-])cc2)cc1)c1csnn1 [Example 722] | 0.015 µg/mL (≈ 0.035 µM) | >10 µg/mL | – | –
O=C(Nc1ccc(NC(=S)NCCc2ccccc2F)cc1)c1csnn1 [Example 684] | 0.005 µg/mL (≈ 0.0125 µM) | 10 µg/mL (≈ 24.9 µM) | – | –
CN(C)c1cc(CCNC(=S)Nc2ccc(NC(=O)c3csnn3)cc2)cc(C(F)(F)F)c1 [Example 674] | 0.006 µg/mL (≈ 0.0121 µM) | >10 µg/mL | – | –
COc1ccccc1CNC(=S)Nc1ccc(NC(=O)c2csnn2)cc1 [Example 650] | 0.05 µg/mL (≈ 0.125 µM) | >10 µg/mL | – | –
COC(=O)c1cccc(NC(=S)Nc2ccc(NC(=O)c3ccccc3F)cc2)c1 [Example 1000, 3-{3-[4-(2-Fluoro-benzoylamino)-phenyl]-thioureido}-benzoic acid methyl ester] | – | – | 0.39 µg/mL (≈ 0.921 µM) | > 10 µg/mL
CCc1ccc(CCNC(=S)Nc2ccc(NC(=O)c3csnn3)cc2)cc1 [Example 713] | 0.009 µg/mL (≈ 0.0219 µM) | >10 µg/mL | – | –
O=C(Nc1ccc(NC(=S)NCCSc2ccc(Cl)c(Cl)c2)cc1)c1csnn1 [Example 710] | 0.006 µg/mL (≈ 0.0124 µM) | >10 µg/mL | – | –
Cc1cc(CCNC(=S)Nc2ccc(NC(=O)c3csnn3)cc2)ccc1N(C)C [Example 692] | 0.04 µg/mL (≈ 0.0908 µM) | 6 µg/mL (≈ 13.6 µM) | – | –
O=C(Nc1ccc(NC(=S)NCCc2cccc(C(F)(F)F)c2)cc1)c1csnn1 [Example 708] | 0.005 µg/mL (≈ 0.0111 µM) | >10 µg/mL | – | –
O=C(Nc1ccc(NC(=S)NCc2ccc(Cl)cc2)cc1)c1csnn1 [Example 742] | 0.009 µg/mL (≈ 0.0223 µM) | >10 µg/mL | – | –
O=C(Nc1ccc(NC(=S)NCCOc2cccc(Cl)c2)cc1)c1csnn1 [Example 668] | 0.009 µg/mL (≈ 0.0207 µM) | >10 µg/mL | – | –
O=C(Nc1ccc(NC(=S)NCc2ccc(F)c(F)c2)cc1)c1ccco1 [Example 675] | 0.05 µg/mL (≈ 0.129 µM) | >10 µg/mL | – | –
O=C(Nc1ccc(NC(=S)NCc2cccc(I)c2)cc1)c1ccco1 [Example 662] | 0.03 µg/mL (≈ 0.0628 µM) | >10 µg/mL | – | –
O=C(Nc1ccc(NC(=S)NCCCCc2ccccc2)cc1)c1csnn1 [Example 648] | 0.01 µg/mL (≈ 0.0243 µM) | >10 µg/mL | – | –
O=C(Nc1ccc(NC(=S)NCCOc2cc(Cl)cc(Cl)c2)cc1)c1csnn1 [Example 688] | 0.006 µg/mL (≈ 0.0128 µM) | >10 µg/mL | – | –
O=C(Nc1ccc(NC(=S)Nc2cc(C(F)(F)F)cc(C(F)(F)F)c2)cc1)c1cocn1 [Example 715] | 0.03 µg/mL (≈ 0.0632 µM) | >10 µg/mL | – | –
O=C(Nc1ccc(NC(=S)NCc2cccc(I)c2)cc1)c1csnn1 [Example 663] | 0.01 µg/mL (≈ 0.0202 µM) | >10 µg/mL | – | –
O=C(Nc1ccc(NC(=S)NCc2ccc(Cl)c(Cl)c2)cc1)c1cscn1 [Example 745] | 0.0025 µg/mL (≈ 0.00572 µM) | 9 µg/mL (≈ 20.6 µM) | – | –
O=C(Nc1ccc(NC(=S)NCCC(c2ccccc2)c2ccccc2)cc1)c1csnn1 [Example 686] | 0.007 µg/mL (≈ 0.0148 µM) | >10 µg/mL | – | –

SMILES | IC50 (ug/ml) HCMV [1] | IC50 (ug/ml) HSV (HSV-1) | IC50 [1] | IC50 (HSV-1)
NC(=O)c1cccc(NC(=S)Nc2ccc(NC(=O)c3ccccc3F)cc2)c1 [Example 1002, N-[4-[[[[3-(Aminocarbonyl)phenyl]-amino]thioxomethyl]amino]phenyl]-2-fluoro-benzamide] | – | – | 0.07 µg/mL (≈ 0.171 µM) | > 10 µg/mL
O=C(Nc1ccc(NC(=S)NCCSc2ccccc2)cc1)c1csnn1 [Example 655] | 0.01 µg/mL (≈ 0.0241 µM) | >10 µg/mL | – | –
O=C(Nc1ccc(NC(=S)NCc2ccc(F)cc2)cc1)c1csnn1 [Example 741] | 0.02 µg/mL (≈ 0.0516 µM) | >10 µg/mL | – | –
O=C(Nc1ccc(NC(=S)NCCc2ccc(F)c(F)c2)cc1)c1csnn1 [Example 716] | 0.01 µg/mL (≈ 0.0238 µM) | >10 µg/mL | – | –
O=C(Nc1ccc(NC(=S)NCCc2ccc(Cl)cc2)cc1)c1csnn1 [Example 685] | 0.006 µg/mL (≈ 0.0144 µM) | 10 µg/mL (≈ 23.9 µM) | – | –
COc1cc(OC)c(NC(=S)Nc2ccc(NC(=O)c3cnccn3)cc2)cc1Cl [Example 144] | 10 µg/mL (≈ 22.5 µM) | 7 µg/mL (≈ 15.8 µM) | – | –
CN(C)CCCc1cc(NC(=S)Nc2ccc(NC(=O)c3csnn3)cc2)cc(C(F)(F)F)c1 [Example 654] | 0.07 µg/mL (≈ 0.138 µM) | >10 µg/mL | – | –
O=C(Nc1ccc(NC(=S)NCCOc2ccc(Br)cc2)cc1)c1ccco1 [Example 697] | 0.04 µg/mL (≈ 0.0869 µM) | 7 µg/mL (≈ 15.2 µM) | – | –
COc1ccc(CCNC(=S)Nc2ccc(NC(=O)c3csnn3)cc2)cc1Br [Example 681] | 0.02 µg/mL (≈ 0.0406 µM) | >10 µg/mL | – | –
O=C(Nc1ccc(NC(=S)NCc2cc(C(F)(F)F)ccc2F)cc1)c1ccco1 [Example 670] | 0.02 µg/mL (≈ 0.0457 µM) | >10 µg/mL | – | –
O=C(Nc1ccc(NC(=S)NCCOc2ccc(I)cc2)cc1)c1csnn1 [Example 694] | 0.04 µg/mL (≈ 0.0761 µM) | 10 µg/mL (≈ 19 µM) | – | –
CC(C)(C)c1ccc(CNC(=S)Nc2ccc(NC(=O)c3cscn3)cc2)cc1 [Example 747] | 0.002 µg/mL (≈ 0.00471 µM) | >10 µg/mL | – | –
O=C(Nc1ccc(NC(=S)NCCOc2ccc(I)cc2)cc1)c1ccco1 [Example 698] | 0.04 µg/mL (≈ 0.0788 µM) | 6 µg/mL (≈ 11.8 µM) | – | –
O=C(Nc1ccc(NC(=S)NCCc2cccc(C(F)(F)F)c2F)cc1)c1csnn1 [Example 766] | 0.006 µg/mL (≈ 0.0128 µM) | >10 µg/mL | – | –
O=C(Nc1ccc(NC(=S)NCCc2ccc(Cl)cc2Cl)cc1)c1csnn1 [Example 707] | 0.005 µg/mL (≈ 0.0111 µM) | >10 µg/mL | – | –
O=C(Nc1ccc(NC(=S)NCc2ccc(Br)cc2)cc1)c1csnn1 [Example 743] | 0.09 µg/mL (≈ 0.201 µM) | >10 µg/mL | – | –
O=C(Nc1ccc(NC(=S)NCCOc2cccc(I)c2)cc1)c1csnn1 [Example 750] | 0.01 µg/mL (≈ 0.019 µM) | >10 µg/mL | – | –
CC(C)(C)c1ccc(CNC(=S)Nc2ccc(NC(=O)c3csnn3)cc2)cc1 [Example 690] | 0.004 µg/mL (≈ 0.0094 µM) | 7 µg/mL (≈ 16.4 µM) | – | –
O=C(Nc1ccc(NC(=S)Nc2ccc(Br)cc2)cc1)c1csnn1 [Example 739] | 0.02 µg/mL (≈ 0.046 µM) | >10 µg/mL | – | –
O=C(Nc1ccc(NC(=S)NCCSc2cccc(Br)c2)cc1)c1ccco1 [Example 679] | 0.01 µg/mL (≈ 0.021 µM) | 10 µg/mL (≈ 21 µM) | – | –
O=C(Nc1ccc(NC(=S)Nc2ccc(Cl)c(Cl)c2)cc1)c1cocn1 [Example 699] | 0.016 µg/mL (≈ 0.0393 µM) | >10 µg/mL | – | –
O=C(Nc1ccc(NC(=S)NCc2cc(C(F)(F)F)ccc2F)cc1)c1cscn1 [Example 746] | 0.005 µg/mL (≈ 0.011 µM) | >10 µg/mL | – | –
O=C(Nc1ccc(NC(=S)Nc2ccc(Cl)c(Cl)c2)cc1)c1cscn1 [Example 704] | 0.006 µg/mL (≈ 0.0142 µM) | >10 µg/mL | – | –
O=C(Nc1ccc(NC(=S)NCCSc2ccccc2)cc1)c1ccco1 [Example 657] | 0.04 µg/mL (≈ 0.101 µM) | 6 µg/mL (≈ 15.1 µM) | – | –
